Test results as given in ChEMBL document CHEMBL3085714 (J Med Chem, 2013).

Key:
Homo sapiens [1] = species on record: Homo sapiens; assay: Selectivity for p38alpha MAP kinase (unknown origin) over WNK2 (unknown origin)
Homo sapiens [2] = species on record: Homo sapiens; assay: Selectivity for p38alpha MAP kinase (unknown origin) over ROS (unknown origin)
Homo sapiens [3] = species on record: Homo sapiens; assay: Selectivity for p38alpha MAP kinase (unknown origin) over EPHA1 (unknown origin)
Homo sapiens [4] = species on record: Homo sapiens; assay: Selectivity for p38alpha MAP kinase (unknown origin) over wild type FLT3 (unknown origin)
Homo sapiens [5] = species on record: Homo sapiens; assay: Selectivity for p38alpha MAP kinase (unknown origin) over RPS6KA1 (unknown origin)
Homo sapiens [6] = species on record: Homo sapiens; assay: Selectivity for p38alpha MAP kinase (unknown origin) over FLT3 D835Y mutant (unknown origin)
[7] = target: Mitogen-activated protein kinase 11 (Homo sapiens) (UniProt Q15759); assay: Inhibition of p38beta MAP kinase (unknown origin) at 10 uM
Chain of Mitogen-activated protein kinase 11 (Homo sapiens) (Q15759 whole entry): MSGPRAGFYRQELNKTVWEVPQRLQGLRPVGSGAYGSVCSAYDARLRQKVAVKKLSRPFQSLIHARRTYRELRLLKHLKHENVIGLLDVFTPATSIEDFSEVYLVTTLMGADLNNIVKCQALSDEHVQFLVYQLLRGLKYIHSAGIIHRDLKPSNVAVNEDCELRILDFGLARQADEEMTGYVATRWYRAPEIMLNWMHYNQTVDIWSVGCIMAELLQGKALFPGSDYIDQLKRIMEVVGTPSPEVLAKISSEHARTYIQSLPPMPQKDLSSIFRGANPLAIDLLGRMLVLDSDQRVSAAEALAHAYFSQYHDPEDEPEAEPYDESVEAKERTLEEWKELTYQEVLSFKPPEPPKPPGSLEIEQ

Homo sapiens [8] = species on record: Homo sapiens; assay: Selectivity for p38alpha MAP kinase (unknown origin) over SNK (unknown origin)
Homo sapiens [9] = species on record: Homo sapiens; assay: Selectivity for p38alpha MAP kinase (unknown origin) over STK23 (unknown origin)
Homo sapiens [10] = species on record: Homo sapiens; assay: Selectivity for p38alpha MAP kinase (unknown origin) over NEK4 (unknown origin)
[11] = target: T1, Mitogen-activated protein kinase 14 (Homo sapiens, UniProt Q16539); assay: Competitive inhibition of p38alpha MAP kinase (unknown origin) at 10 uM in presence of 100 uM ATP
T1 sequence (Q16539 whole entry): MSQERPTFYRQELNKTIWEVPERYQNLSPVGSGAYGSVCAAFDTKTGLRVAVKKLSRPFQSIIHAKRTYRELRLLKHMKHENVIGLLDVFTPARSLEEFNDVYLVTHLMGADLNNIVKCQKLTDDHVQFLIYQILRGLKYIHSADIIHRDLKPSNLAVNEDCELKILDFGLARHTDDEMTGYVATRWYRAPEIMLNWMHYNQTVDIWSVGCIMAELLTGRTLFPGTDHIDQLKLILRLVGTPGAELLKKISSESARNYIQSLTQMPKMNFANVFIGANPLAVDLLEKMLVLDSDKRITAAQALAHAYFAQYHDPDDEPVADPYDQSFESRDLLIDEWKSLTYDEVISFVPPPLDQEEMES

Homo sapiens [12] = species on record: Homo sapiens; assay: Selectivity for p38alpha MAP kinase (unknown origin) over GRK7 (unknown origin)
Homo sapiens [13] = species on record: Homo sapiens; assay: Selectivity for p38alpha MAP kinase (unknown origin) over TTK (unknown origin)
Homo sapiens [14] = species on record: Homo sapiens; assay: Selectivity for p38alpha MAP kinase (unknown origin) over JNK3 (unknown origin)
Homo sapiens [15] = species on record: Homo sapiens; assay: Selectivity for p38alpha MAP kinase (unknown origin) over TIE2 (unknown origin)
Homo sapiens [16] = species on record: Homo sapiens; assay: Selectivity for p38alpha MAP kinase (unknown origin) over ARK5 (unknown origin)
Homo sapiens [17] = species on record: Homo sapiens; assay: Selectivity for p38alpha MAP kinase (unknown origin) over RAF1 Y340D/Y341D double mutant (unknown origin)
Homo sapiens [18] = species on record: Homo sapiens; assay: Selectivity for p38alpha MAP kinase (unknown origin) over ZAK (unknown origin)
Homo sapiens [19] = species on record: Homo sapiens; assay: Selectivity for p38alpha MAP kinase (unknown origin) over DYRK1B (unknown origin)
Homo sapiens [20] = species on record: Homo sapiens; assay: Selectivity for p38alpha MAP kinase (unknown origin) over INS-R (unknown origin)
Homo sapiens [21] = species on record: Homo sapiens; assay: Selectivity for p38alpha MAP kinase (unknown origin) over ABL1 Q252H mutant (unknown origin)
Homo sapiens [22] = species on record: Homo sapiens; assay: Selectivity for p38alpha MAP kinase (unknown origin) over MET Y1230H mutant (unknown origin)
Homo sapiens [23] = species on record: Homo sapiens; assay: Selectivity for p38alpha MAP kinase (unknown origin) over ROCK2 (unknown origin)
Homo sapiens [24] = species on record: Homo sapiens; assay: Selectivity for p38alpha MAP kinase (unknown origin) over PDGFR-beta (unknown origin)
[25] = target: Calcium/calmodulin-dependent protein kinase type II subunit delta (Homo sapiens) (UniProt Q13557); assay: Inhibition of CAMK2D (unknown origin) at 10 uM
Chain of Calcium/calmodulin-dependent protein kinase type II subunit delta (Homo sapiens) (Q13557 whole entry): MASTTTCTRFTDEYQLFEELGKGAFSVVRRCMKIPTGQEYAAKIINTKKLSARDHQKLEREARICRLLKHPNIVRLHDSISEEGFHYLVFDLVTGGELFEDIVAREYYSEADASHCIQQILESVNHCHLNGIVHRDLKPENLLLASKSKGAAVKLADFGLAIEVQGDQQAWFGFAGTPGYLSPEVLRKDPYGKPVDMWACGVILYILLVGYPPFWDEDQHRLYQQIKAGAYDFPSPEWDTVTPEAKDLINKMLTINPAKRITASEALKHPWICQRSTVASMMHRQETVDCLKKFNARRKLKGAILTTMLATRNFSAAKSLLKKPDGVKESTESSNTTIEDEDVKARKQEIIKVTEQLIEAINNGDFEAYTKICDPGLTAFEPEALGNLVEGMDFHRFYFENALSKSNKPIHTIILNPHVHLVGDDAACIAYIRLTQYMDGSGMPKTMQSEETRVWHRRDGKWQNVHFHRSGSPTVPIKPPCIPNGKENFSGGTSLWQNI

Homo sapiens [26] = species on record: Homo sapiens; assay: Selectivity for p38alpha MAP kinase (unknown origin) over ABL1 E255K mutant (unknown origin)
Homo sapiens [27] = species on record: Homo sapiens; assay: Selectivity for p38alpha MAP kinase (unknown origin) over SGK3 (unknown origin)
Homo sapiens [28] = species on record: Homo sapiens; assay: Selectivity for p38alpha MAP kinase (unknown origin) over BTK (unknown origin)
Homo sapiens [29] = species on record: Homo sapiens; assay: Selectivity for p38alpha MAP kinase (unknown origin) over MET F1200I mutant (unknown origin)
Homo sapiens [30] = species on record: Homo sapiens; assay: Selectivity for p38alpha MAP kinase (unknown origin) over ROCK1 (unknown origin)
Homo sapiens [31] = species on record: Homo sapiens; assay: Selectivity for p38alpha MAP kinase (unknown origin) over PDGFR-alpha D842V mutant (unknown origin)
Homo sapiens [32] = species on record: Homo sapiens; assay: Selectivity for p38alpha MAP kinase (unknown origin) over BMPR1A (unknown origin)
Homo sapiens [33] = species on record: Homo sapiens; assay: Selectivity for p38alpha MAP kinase (unknown origin) over TEC (unknown origin)
[34] = target: T1, Mitogen-activated protein kinase 14; assay: Inhibition of p38alpha MAP kinase in human whole blood assessed as inhibition of LPS-induced TNFalpha release by ELISA
Homo sapiens [35] = species on record: Homo sapiens; assay: Selectivity for p38alpha MAP kinase (unknown origin) over SRPK1 (unknown origin)
Homo sapiens [36] = species on record: Homo sapiens; assay: Selectivity for p38alpha MAP kinase (unknown origin) over EPHB2 (unknown origin)
Homo sapiens [37] = species on record: Homo sapiens; assay: Selectivity for p38alpha MAP kinase (unknown origin) over CDC42BPB (unknown origin)
Homo sapiens [38] = species on record: Homo sapiens; assay: Selectivity for p38alpha MAP kinase (unknown origin) over wild type MET (unknown origin)
Homo sapiens [39] = species on record: Homo sapiens; assay: Selectivity for p38alpha MAP kinase (unknown origin) over VEGF-R3 (unknown origin)
Homo sapiens [40] = species on record: Homo sapiens; assay: Selectivity for p38alpha MAP kinase (unknown origin) over EPHA3 (unknown origin)
Homo sapiens [41] = species on record: Homo sapiens; assay: Selectivity for p38alpha MAP kinase (unknown origin) over ASK1 (unknown origin)
Homo sapiens [42] = species on record: Homo sapiens; assay: Selectivity for p38alpha MAP kinase (unknown origin) over TGFB-R2 (unknown origin)
Homo sapiens [43] = species on record: Homo sapiens; assay: Selectivity for p38alpha MAP kinase (unknown origin) over MET Y1230A mutant (unknown origin)
[44] = target: STE20-like serine/threonine-protein kinase (Homo sapiens) (UniProt Q9H2G2); assay: Inhibition of SLK (unknown origin) at 10 uM
Chain of STE20-like serine/threonine-protein kinase (Homo sapiens) (Q9H2G2 whole entry, looked up): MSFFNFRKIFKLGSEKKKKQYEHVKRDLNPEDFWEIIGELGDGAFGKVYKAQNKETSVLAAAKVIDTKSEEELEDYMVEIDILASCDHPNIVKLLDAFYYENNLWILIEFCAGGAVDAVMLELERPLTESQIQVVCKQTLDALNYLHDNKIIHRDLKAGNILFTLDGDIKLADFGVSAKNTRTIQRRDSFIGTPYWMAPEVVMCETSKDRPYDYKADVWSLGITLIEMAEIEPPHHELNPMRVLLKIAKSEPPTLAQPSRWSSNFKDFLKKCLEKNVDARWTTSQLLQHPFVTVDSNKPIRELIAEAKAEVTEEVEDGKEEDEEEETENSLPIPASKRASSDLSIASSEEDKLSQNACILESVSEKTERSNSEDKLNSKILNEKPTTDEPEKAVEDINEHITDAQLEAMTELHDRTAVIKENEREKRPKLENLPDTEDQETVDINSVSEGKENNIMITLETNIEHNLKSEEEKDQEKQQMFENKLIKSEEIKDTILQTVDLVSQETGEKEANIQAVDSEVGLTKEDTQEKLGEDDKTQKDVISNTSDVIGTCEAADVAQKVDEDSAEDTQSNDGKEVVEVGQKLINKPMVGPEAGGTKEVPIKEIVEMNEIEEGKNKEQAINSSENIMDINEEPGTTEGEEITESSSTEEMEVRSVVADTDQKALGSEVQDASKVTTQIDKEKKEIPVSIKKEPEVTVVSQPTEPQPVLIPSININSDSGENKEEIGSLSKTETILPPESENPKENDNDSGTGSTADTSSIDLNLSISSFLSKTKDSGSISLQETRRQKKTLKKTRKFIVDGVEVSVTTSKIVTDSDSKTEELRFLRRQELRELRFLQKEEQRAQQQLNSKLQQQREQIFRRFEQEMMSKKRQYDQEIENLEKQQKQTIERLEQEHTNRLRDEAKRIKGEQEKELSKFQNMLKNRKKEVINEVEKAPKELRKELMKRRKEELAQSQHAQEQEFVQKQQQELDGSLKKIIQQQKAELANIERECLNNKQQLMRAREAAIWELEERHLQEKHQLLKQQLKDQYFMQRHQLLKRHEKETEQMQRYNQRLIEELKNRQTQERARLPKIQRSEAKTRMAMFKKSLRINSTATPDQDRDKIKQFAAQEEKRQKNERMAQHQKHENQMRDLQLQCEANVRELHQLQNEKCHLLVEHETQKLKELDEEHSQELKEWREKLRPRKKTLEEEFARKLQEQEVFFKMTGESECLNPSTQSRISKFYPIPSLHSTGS

- Selectivity ratio (Homo sapiens [1]): > 1000
- Selectivity ratio (Homo sapiens [2]): > 1000
- Selectivity ratio (Homo sapiens [3]): > 1000
- Selectivity ratio (Homo sapiens [4]): > 1000
- Selectivity ratio (Homo sapiens [5]): > 1000
- Selectivity ratio (Homo sapiens [6]): > 1000
- inhibition [7]: > 50%
- Selectivity ratio (Homo sapiens [8]): > 1000
- Selectivity ratio (Homo sapiens [9]): > 1000
- Selectivity ratio (Homo sapiens [10]): > 1000
- inhibition [11]: > 50%
- Selectivity ratio (Homo sapiens [12]): > 1000
- Selectivity ratio (Homo sapiens [13]): > 1000
- Selectivity ratio (Homo sapiens [14]): > 1000
- Selectivity ratio (Homo sapiens [15]): > 1000
- Selectivity ratio (Homo sapiens [16]): > 1000
- Selectivity ratio (Homo sapiens [17]): > 1000
- Selectivity ratio (Homo sapiens [18]): > 1000
- Selectivity ratio (Homo sapiens [19]): > 1000
- Selectivity ratio (Homo sapiens [20]): > 1000
- Selectivity ratio (Homo sapiens [21]): > 1000
- Selectivity ratio (Homo sapiens [22]): > 1000
- Selectivity ratio (Homo sapiens [23]): > 1000
- Selectivity ratio (Homo sapiens [24]): > 1000
- inhibition [25]: > 50%
- Selectivity ratio (Homo sapiens [26]): > 1000
- Selectivity ratio (Homo sapiens [27]): > 1000
- Selectivity ratio (Homo sapiens [28]): > 1000
- Selectivity ratio (Homo sapiens [29]): > 1000
- Selectivity ratio (Homo sapiens [30]): > 1000
- Selectivity ratio (Homo sapiens [31]): > 1000
- Selectivity ratio (Homo sapiens [32]): > 1000
- Selectivity ratio (Homo sapiens [33]): > 1000
- IC50 [34]: 0.125 µM
- Selectivity ratio (Homo sapiens [35]): > 1000
- Selectivity ratio (Homo sapiens [36]): > 1000
- Selectivity ratio (Homo sapiens [37]): > 1000
- Selectivity ratio (Homo sapiens [38]): > 1000
- Selectivity ratio (Homo sapiens [39]): > 1000
- Selectivity ratio (Homo sapiens [40]): > 1000
- Selectivity ratio (Homo sapiens [41]): > 1000
- Selectivity ratio (Homo sapiens [42]): > 1000
- Selectivity ratio (Homo sapiens [43]): > 1000
- inhibition [44]: > 50%
SMILES: Cc1cc(F)c(NC(=O)c2ccsc2)cc1Nc1ccc2c(c1)OCc1ccc(OC[C@H](O)CO)cc1C2=O
